In patent US20160075653A1, “NEMATICIDAL N-(PHENYLCYCLOALKYL)CARBOXAMIDES AND N-(PHENYLCYCLOALKYL)THIOCARBOXAMIDES” (BAYER CROPSCIENCE AKTIENGESELLSCHAFT, priority 2013, published 2016):

Experiments:
[1] = Measurement of log P values by HPLC on reversed phase columns (methods [a] pH 2.3, [b] pH 2.7, [c] pH 7.8); assay type: physicochemical
How it was run: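 Retention times were converted to log P by linear interpolation between linear alkan-2-one standards (3 to 16 carbons) of known log P. Eluents, each with 10% to 95% acetonitrile gradient: phosphoric acid 0.1% at pH 2.3 [a]; formic acid 0.1% at pH 2.7, LC-MS [b]; ammonium hydrogen carbonate 0.001 molar at pH 7.8, LC-MS [c].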

[2] = tested on: Meloidogyne incognita; assay: Meloidogyne incognita test (MELGIN), gall formation on salad seedlings; assay type: in vivo; conditions: application rate 20 ppm, after 14 days
Procedure: Meioidovnve incomita—Test (MELGIN)
Solvent: 125.0 parts by weight of acetone
To produce a suitable preparation of active compound, 1 part by weight of active compound is mixed with the stated amount of solvent, and the concentrate is diluted with water to the desired concentration.
Vessels are filled with sand, a solution of the active ingredient, a suspension containing eggs and larvae of the southern root-knot nematode (Meloidogyne incognita) and salad seeds. The salad seeds germinate and the seedlings grow. Galls develop in the roots.
After 14 days the nematicidal activity is determined on the basis of the percentage of gall formation. 100% means that no galls were found; 0% means the number of galls found on the roots of the treated plants was equal to that in untreated control plants.

[3] = HPLC reversed phase, method [b] (pH 2.7)
[4] = HPLC on reversed phase column, method [b], pH 2.7
[5] = HPLC on reversed phase column, method [c], pH 7.8

Cn1cc(C(=O)N[C@@H]2CC[C@@H]2c2c(F)cccc2C(F)(F)F)c(C(F)F)n1 (relative stereo) [Compound 574]
logP [1, 3]: 2.91^[b] | nematicidal activity (percentage of gall formation; 100% = no galls) [2]: 100%

O=C(N[C@@H]1CC[C@@H]1c1c(F)cccc1C(F)(F)F)c1cccnc1Cl (relative stereo) [Compound 575]
logP [1, 3]: 2.83^[b] | nematicidal activity (percentage of gall formation; 100% = no galls) [2]: 100%

O=C(N[C@@H]1CC[C@@H]1c1c(F)cccc1C(F)(F)F)c1nccnc1Cl (relative stereo) [Compound 576]
logP [1, 3]: 3.02^[b] | nematicidal activity (percentage of gall formation; 100% = no galls) [2]: 100%

O=C(N[C@@H]1CC[C@@H]1c1c(F)cccc1C(F)(F)F)c1cccnc1C(F)(F)F (relative stereo) [Compound 577]
logP [1, 3]: 3.81^[b] | nematicidal activity (percentage of gall formation; 100% = no galls) [2]: 100%

O=C(N[C@@H]1CC[C@@H]1c1c(F)cccc1C(F)(F)F)c1sccc1I (relative stereo) [Compound 584]
logP [1, 3]: 4.00^[b] | nematicidal activity (percentage of gall formation; 100% = no galls) [2]: 100%

O=C(N[C@@H]1CC[C@@H]1c1c(F)cccc1C(F)(F)F)c1ccccc1C(F)(F)F (relative stereo) [Compound 585]
logP [1, 3]: 3.60^[b] | nematicidal activity (percentage of gall formation; 100% = no galls) [2]: 100%

O=C(N[C@@H]1CC[C@@H]1c1cc(F)ccc1C(F)(F)F)c1ccccc1C(F)(F)F (relative stereo) [Compound 586]
logP [1, 3]: 3.53^[b] | nematicidal activity (percentage of gall formation; 100% = no galls) [2]: 100%

O=C(N[C@@H]1CC[C@@H]1c1cc(F)ccc1C(F)(F)F)c1cccnc1 (relative stereo) [Compound 587]
logP [1, 3]: 2.22^[b] | nematicidal activity (percentage of gall formation; 100% = no galls) [2]: 90%

O=C(N[C@@H]1CC[C@@H]1c1cccc(F)c1C(F)(F)F)c1ccccc1C(F)(F)F (relative stereo) [Compound 589]
logP [1, 3]: 3.38^[b] | nematicidal activity (percentage of gall formation; 100% = no galls) [2]: 100%

O=C(N[C@@H]1CC[C@@H]1c1cccc(F)c1C(F)(F)F)c1ccccc1 (relative stereo) [Compound 592]
logP [1, 4]: 3.01^[b] | nematicidal activity (percentage of gall formation; 100% = no galls) [2]: 100%

O=C(N[C@@H]1CC[C@@H]1c1cccc(F)c1C(F)(F)F)c1ccc(Cl)cc1Cl (relative stereo) [Compound 594]
logP [1, 4]: 3.73^[b] | nematicidal activity (percentage of gall formation; 100% = no galls) [2]: 90%

O=C(N[C@@H]1CC[C@@H]1c1cccc(F)c1C(F)(F)F)c1ccc(Cl)cc1 (relative stereo) [Compound 595]
logP [1, 4]: 3.47^[b] | nematicidal activity (percentage of gall formation; 100% = no galls) [2]: 100%

O=C(N[C@@H]1CC[C@@H]1c1cccc(F)c1C(F)(F)F)c1ccccc1I (relative stereo) [Compound 599]
logP [1, 4]: 3.39^[b] | nematicidal activity (percentage of gall formation; 100% = no galls) [2]: 100%

O=C(N[C@@H]1CC[C@@H]1c1cccc(F)c1C(F)(F)F)c1ccccc1Cl (relative stereo) [Compound 601]
logP [1, 4]: 3.23^[b] | nematicidal activity (percentage of gall formation; 100% = no galls) [2]: 100%

O=C(N[C@@H]1C[C@@H]1c1ccc(Cl)cc1Cl)c1ncccc1Br (relative stereo) [Compound 608]
logP [1, 4]: 2.98^[b] | logP [1, 5]: 2.99^[c]; | nematicidal activity (percentage of gall formation; 100% = no galls) [2]: 100%

CS(=O)(=O)c1ccccc1C(=O)N[C@@H]1C[C@@H]1c1ccc(Cl)cc1Cl (relative stereo) [Compound 609]
logP [1, 4]: 2.62^[b] | logP [1, 5]: 2.61^[c]; | nematicidal activity (percentage of gall formation; 100% = no galls) [2]: 100%

Cc1occc1C(=O)N[C@@H]1C[C@@H]1c1ccc(Cl)cc1Cl (relative stereo) [Compound 611]
logP [1, 4]: 3.02^[b] | logP [1, 5]: 2.89^[c]; | nematicidal activity (percentage of gall formation; 100% = no galls) [2]: 90%

O=C(N[C@@H]1CC[C@@H]1c1cccc(F)c1C(F)(F)F)c1ncccc1Cl (relative stereo) [Compound 617]
logP [1, 4]: 2.97^[b] | nematicidal activity (percentage of gall formation; 100% = no galls) [2]: 100%

O=C(N[C@@H]1CC[C@@H]1c1ccccc1C(F)(F)F)c1cccnc1 (relative stereo) [Compound 619]
logP [1, 4]: 2.06^[b] | nematicidal activity (percentage of gall formation; 100% = no galls) [2]: 90%

O=C(N[C@@H]1CC[C@@H]1c1ccccc1C(F)(F)F)c1nccnc1Cl (relative stereo) [Compound 623]
logP [1, 4]: 2.79^[b] | nematicidal activity (percentage of gall formation; 100% = no galls) [2]: 100%

O=C(N[C@@H]1CC[C@@H]1c1cccc(F)c1C(F)(F)F)c1ccccc1[N+](=O)[O-] (relative stereo) [Compound 630]
logP [1, 4]: 2.94^[b] | nematicidal activity (percentage of gall formation; 100% = no galls) [2]: 100%

O=C(N[C@@H]1CC[C@@H]1c1cccc(F)c1C(F)(F)F)c1cccnc1 (relative stereo) [Compound 631]
logP [1, 4]: 2.12^[b] | nematicidal activity (percentage of gall formation; 100% = no galls) [2]: 90%
